Experimental data reported in patent US11814364B2, “Pyridine N-oxide derivatives useful as factor XIa inhibitors” (Janssen Pharmaceutica NV, priority 2021, dated 2023).

molecular target: human plasma kallikrein (Homo sapiens, UniProt P03952); test: Kallikrein inhibition FLINT assay with quenched AMC peptide substrate Z-Gly-Pro-Arg-AMC (end point EP or kinetic KIN reads); assay type: biochemical; conditions: kinetic reads at 5 min intervals over 30 min; read-out: Kallikrein (KIN) IC50
Description: A fluorescence intensity (FLINT) based assay was used to monitor inhibition of human plasma kallikrein.
The Kallikrein FLINT assay was used with the following Z-Gly-Pro-Arg-AMC assay buffer: 50 mM Tris, pH 7.5, 100 mM NaCl, 5 mM CaCl2, 0.1 mg/mL BSA, 0.03% CHAPS. Assay buffer was prepared by mixing all ingredients fresh. 2× Z-Gly-Pro-Arg-AMC peptide substrate was prepared by diluting 10 mM stock into 1× assay buffer for a 100 μM working concentration (50 μM final concentration).
Test compound(s) were run in an 11-point, 3-fold serial dilution with a final top compound concentration of 1 μM. Final DMSO in assay was 2%. Plasma kallikrein was pre-incubated for 30-minute with compound and then 50 μM substrate was added to initiate the reaction. The assay was run with either end point (EP) reads at 30 min or kinetic (KIN) reads at 5 min intervals over 30 minutes.
Percent inhibition (IC50) curves were generated per compound tested, and data was analyzed using a 4-parameter logistic fit using GeneData Screener. The relative fluorescence unit (RFU) values were normalized to percent inhibition using the following equation: % inhibition=((HC−LC)−(compound−LC)/(HC−LC))*100
An 11-point dose response curve for the test compound(s) was generated using GENDATA to determine IC50 value based on the following equation: Y=Bottom+(Top−Bottom)/(1+10^((log IC50−X)*HillSlope))
Results listed in columns with […] designation were measured using endpoint reads where a single fluorescence reading was measured for each well at a 30 min timepoint.

human plasma kallikrein, sequence (P03952 391-638 limits assumed): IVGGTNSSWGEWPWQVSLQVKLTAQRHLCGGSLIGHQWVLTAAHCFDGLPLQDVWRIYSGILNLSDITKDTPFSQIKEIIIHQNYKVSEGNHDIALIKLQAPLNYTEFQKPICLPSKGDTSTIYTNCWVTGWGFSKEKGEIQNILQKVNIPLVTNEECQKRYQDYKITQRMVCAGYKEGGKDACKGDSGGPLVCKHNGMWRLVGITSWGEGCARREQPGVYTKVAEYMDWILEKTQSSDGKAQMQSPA
human plasma kallikrein, sequence (P03952 20-390 partner limits assumed): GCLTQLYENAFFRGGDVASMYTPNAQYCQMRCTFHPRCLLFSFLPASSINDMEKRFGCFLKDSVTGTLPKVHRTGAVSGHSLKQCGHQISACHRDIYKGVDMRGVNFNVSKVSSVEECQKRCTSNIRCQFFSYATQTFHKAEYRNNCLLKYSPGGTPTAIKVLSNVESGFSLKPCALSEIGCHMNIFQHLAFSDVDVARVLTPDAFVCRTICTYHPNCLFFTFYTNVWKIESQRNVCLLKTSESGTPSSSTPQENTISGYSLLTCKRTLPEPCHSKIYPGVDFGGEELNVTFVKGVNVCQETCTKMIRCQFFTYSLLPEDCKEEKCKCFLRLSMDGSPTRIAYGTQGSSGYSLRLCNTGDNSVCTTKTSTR

| IC50 [µM] | Compound |
| --- | --- |
| 1.29 | COC(=O)Nc1ccc(-c2cnn(C(CC(C)OC)c3ccc(-c4c(-n5cnnn5)ccc(Cl)c4F)c[n+]3[O-])c2)cc1 (single isomer, unassigned) [Example P228] |
| 0.933 | N#Cc1cnn(C(F)F)c1-c1cnn(C(CC2CC2)c2ccc(-c3c(-n4cnnn4)ccc(Cl)c3F)c[n+]2[O-])c1 (single isomer, unassigned) [Example P663] |
| 0.0094 | NC(=O)c1ccn(CC(c2ccc(-c3c(-n4cnnn4)ccc(Cl)c3F)c[n+]2[O-])n2cc(-c3ccnc(C(F)(F)F)c3)cn2)n1 (single isomer, unassigned) [Example P448] |
| 0.316 | COCCC(c1ccc(-c2c(-n3cc(Cl)nn3)ccc(Cl)c2F)c[n+]1[O-])n1cc(-c2c(Cl)nnn2C)cn1 (stereo not drawn) [Example P639] |
| 0.205 | COCC[C@H](c1ccc(-c2c(-n3cc(OC(F)F)nn3)ccc(Cl)c2F)c[n+]1[O-])n1cc(-c2cnnn2C)cn1 [Example P616] |
| 0.0053 | [O-][n+]1cc(-c2c(-n3cnnn3)ccc(Cl)c2F)ccc1C(Cn1cccn1)n1cc(-c2ccnc(C(F)(F)F)c2)cn1 (single isomer, unassigned) [Example P513] |
| 0.004 | O=C(O)c1ccc(-c2cnn([C@H](CCOC(F)F)c3ccc(-c4c(C(F)F)ccc(Cl)c4F)c[n+]3[O-])c2)cc1 [Example Q35] |
| 0.0193 | CC(C)c1cc(-c2cnn(C(Cn3cc(F)cn3)c3ccc(-c4c(-n5cnnn5)ccc(Cl)c4F)c[n+]3[O-])c2)cc[n+]1[O-] (single isomer, unassigned) [Example P413] |
| 0.0014 | [O-][n+]1cc(-c2c(-n3cnnn3)ccc(Cl)c2F)ccc1C(Cc1ccc(F)cc1)n1cc(-c2ccncc2)cn1 (single isomer, unassigned) [Example P235] |
| 0.382 | O=C(O)c1ccc(-c2cnn(C(CN3CCCC3=O)c3ccc(-c4c(C(F)F)ccc(Cl)c4F)c[n+]3[O-])c2)cc1 (single isomer, unassigned) [Example Q15] |
| 0.152 | CN(CC(c1ccc(-c2c(-n3cnnn3)ccc(Cl)c2F)c[n+]1[O-])n1cc(-c2cc[n+]([O-])cc2)cn1)C(=O)Cc1ccccc1 (stereo not drawn) [Example P345] |
| 0.658 | [O-][n+]1cc(-c2c(-n3cnnn3)ccc(Cl)c2F)ccc1C(CC1CC1)n1cc(-c2cnn(C(F)(F)F)c2)cn1 (stereo not drawn) [Example P708] |
| 0.0198 | Cn1nnc(F)c1-c1cnn(C(CCOC(F)F)c2ccc(-c3c(-n4cnnn4)ccc(Cl)c3F)c[n+]2[O-])c1 (stereo not drawn) [Example P749] |
| 0.0029 | NC(=O)c1ccc(-c2cnn(C(Cc3ccn(C(F)F)n3)c3ccc(-c4c(-n5cc(C(F)(F)F)nn5)ccc(Cl)c4F)c[n+]3[O-])c2)cc1F (stereo not drawn) [Example P892] |
| 0.0701 | COC(=O)Nc1ccc(-c2cnn(C(CC3CCCCO3)c3ccc(-c4c(-n5cnnn5)ccc(Cl)c4F)c[n+]3[O-])c2)cc1 (single isomer, unassigned) [Example P127] |
| 0.0698 | N#Cc1cc(-c2cnn(C(CN3CCOC3=O)c3ccc(-c4c(-n5cnnn5)ccc(Cl)c4F)c[n+]3[O-])c2)ccn1 (single isomer, unassigned) [Example P439] |
| 0.428 | [O-][n+]1cc(-c2c(-n3cnnn3)ccc(Cl)c2F)ccc1C(CC1CC1)n1cc(-c2cnnn2C2CC2)cn1 (stereo not drawn) [Example P524] |
| 0.0162 | [O-][n+]1ccc(-c2cnn(C(Cc3ccc(Cl)cc3)c3ccc(-c4cc(Cl)ccc4-n4cnnn4)c[n+]3[O-])c2)cc1 (stereo not drawn) [Example P172] |
| 0.0559 | CN(CC(c1ccc(-c2c(-n3cnnn3)ccc(Cl)c2F)c[n+]1[O-])n1cc(-c2ccnc(C(F)(F)F)c2)cn1)C(=O)OCc1ccccc1 (single isomer, unassigned) [Example P375] |
| 0.0819 | O=c1ccccn1CC(c1ccc(-c2c(-n3cnnn3)ccc(Cl)c2F)c[n+]1[O-])n1cc(-c2ccnc(C(F)(F)F)c2)cn1 (stereo not drawn) [Example P358] |
| > 0.1 | CC1CC1C[C@@H](c1ccc(-c2c(-n3cnnn3)ccc(Cl)c2F)c[n+]1[O-])n1cc(-c2c(F)nnn2C)cn1 (stereo partly drawn) [Example P769] |
| 0.249 | NC(=O)c1ccc(-c2cnn(C(Cc3nccs3)c3ccc(-c4c(-n5cc(C(F)(F)F)nn5)ccc(Cl)c4F)c[n+]3[O-])c2)cc1F (single isomer, unassigned) [Example P942] |
| 0.0627 | Nc1cnc(-c2cnn(C(CCOC(F)F)c3ccc(-c4c(-n5cc(C(F)(F)F)nn5)ccc(Cl)c4F)c[n+]3[O-])c2)c(F)n1 (single isomer, unassigned) [Example P833] |
| 0.0108 | COc1ccc(CC(c2ccc(-c3c(-n4cnnn4)ccc(Cl)c3F)c[n+]2[O-])n2cc(-c3ccc(C(=O)NC4CC4)cc3)cn2)cc1 (stereo not drawn) [Example P135] |

| IC50 [µM] | Compound |
| --- | --- |
| 0.0047 | O=C(O)c1ccc(-c2cnn(C(Cc3ccn(C(F)F)n3)c3ccc(-c4c(C(F)F)ccc(Cl)c4F)c[n+]3[O-])c2)cc1F (single isomer, unassigned) [Example Q64] |
| 0.029 | [O-][n+]1ccc(-c2cnn(C(Cn3cccn3)c3ccc(-c4c(-n5cnnn5)ccc(Cl)c4F)c[n+]3[O-])c2)cc1C(F)F (single isomer, unassigned) [Example P334] |
| 0.139 | [O-][n+]1cc(-c2c(-n3cnnn3)ccc(Cl)c2F)ccc1C(Cn1cc(-c2ccccn2)cn1)n1cc(-c2ccccn2)cn1 (single isomer, unassigned) [Example P516] |
| 0.572 | CN(CC(c1ccc(-c2c(-n3cnnn3)ccc(Cl)c2F)c[n+]1[O-])n1cc(-c2ccnc(C(F)(F)F)c2)cn1)C(=O)C1CC1 (single isomer, unassigned) [Example P425] |
| 0.0967 | Cn1nncc1-c1cnn([C@H](Cn2cc(F)cn2)c2ccc(-c3c(-n4cc(Cl)nn4)ccc(Cl)c3F)c[n+]2[O-])c1 [Example P537] |
| 0.249 | [O-][n+]1cc(-c2c(-n3cnnn3)ccc(Cl)c2F)ccc1[C@@H](CC1CC1)n1cc(-c2ncnn2C(F)F)cn1 [Example P762] |
| 0.217 | COCC[C@H](c1ccc(-c2c(-n3cnnn3)ccc(Cl)c2F)c[n+]1[O-])n1cc(-c2c(Cl)cnn2C(F)F)cn1 [Example P623] |
| 0.0861 | CCC(c1ccc(-c2c(-n3cnnn3)ccc(Cl)c2F)c[n+]1[O-])n1cc(-c2ccc(NC(=O)OC)cc2)cn1 (single isomer, unassigned) [Example P155] |
| 0.0191 | [O-][n+]1cc(-c2c(-n3cnnn3)ccc(Cl)c2F)ccc1C(Cn1cc(F)cn1)n1cc(-c2ccnc(C(F)(F)F)c2)cn1 (stereo not drawn) [Example P275] |
| 0.0022 | Cn1cc(-c2cnn([C@H](Cc3ccn(C(F)F)n3)c3ccc(-c4c(-n5cc(C#N)nn5)ccc(Cl)c4F)c[n+]3[O-])c2)c(Cl)n1 [Example P852] |
| 0.0228 | [O-][n+]1cc(-c2cc(Cl)ccc2-n2cnnn2)ccc1C(Cc1ccc(Cl)cc1)n1cc(-c2ccnc(F)c2)cn1 (stereo not drawn) [Example P210] |
| 0.0649 | O=C(O)c1ccc(-c2cnn(C(c3ccc(-c4cc(Cl)ccc4-n4cnnn4)c[n+]3[O-])C(O)c3ccccc3)c2)cc1 (single isomer, unassigned) [Example P118] |
| 0.0971 | O=C(O)c1ccc(-c2cnn(C(CC3CC3)c3ccc(-c4c(C(F)F)ccc(Cl)c4F)c[n+]3[O-])c2)cc1 (single isomer, unassigned) [Example Q13] |
| 0.0097 | [O-][n+]1cc(-c2c(-n3cnnn3)ccc(Cl)c2F)ccc1C(Cc1ccn(C(F)F)n1)n1cc(-c2ccnc(C(F)(F)F)c2)cn1 (stereo not drawn) [Example P703] |
| 0.0043 | Cc1nc(N)ccc1-c1cnn(C(CCOC(F)F)c2ccc(-c3c(-n4cnnn4)ccc(Cl)c3F)c[n+]2[O-])c1 (stereo not drawn) [Example P342] |
| 0.0178 | CN(C)C(=O)c1ccn(CC(c2ccc(-c3c(-n4cnnn4)ccc(Cl)c3F)c[n+]2[O-])n2cc(-c3ccnc(C(F)(F)F)c3)cn2)n1 (single isomer, unassigned) [Example P451] |
| 0.0668 | COCC(=O)N(C)CC(c1ccc(-c2c(-n3cnnn3)ccc(Cl)c2F)c[n+]1[O-])n1cc(-c2ccnc(C(F)(F)F)c2)cn1 (stereo not drawn) [Example P427] |
| 0.0677 | COC(=O)Nc1ccc(-c2cnn(C(CC(C)C)c3ccc(-c4c(-n5cnnn5)ccc(Cl)c4F)c[n+]3[O-])c2)cc1 (single isomer, unassigned) [Example P181] |
| 0.0771 | Nc1ccc(-c2cnn(C(Cn3cc(F)cn3)c3ccc(-c4c(-n5cnnn5)ccc(Cl)c4F)c[n+]3[O-])c2)c(F)n1 (single isomer, unassigned) [Example P417] |
| 0.0069 | [O-][n+]1cc(-c2c(-n3cnnn3)ccc(Cl)c2F)ccc1C(CC1CC1)n1cc(-c2c[nH]nc2Cl)cn1 (stereo not drawn) [Example P938] |
| 0.0762 | Cn1nncc1-c1cnn([C@H](Cc2ccn(C(F)F)n2)c2ccc(-c3c(-n4cc(C(F)(F)F)nn4)ccc(Cl)c3F)c[n+]2[O-])c1 [Example P792] |
| 0.0126 | N#Cc1cc(-c2cnn(C(Cn3cc(F)cn3)c3ccc(-c4c(-n5cnnn5)ccc(Cl)c4F)c[n+]3[O-])c2)ccn1 (single isomer, unassigned) [Example P454] |
| 0.0033 | O=C(NC1CC1)c1ccc(-c2cnn(C(Cc3ccc(F)cc3)c3ccc(-c4c(-n5cnnn5)ccc(Cl)c4F)c[n+]3[O-])c2)cc1 (stereo not drawn) [Example P125] |

| Compound | IC50 [µM] |
| --- | --- |
| O=c1[nH]c(-c2ccc(-c3cnn(C(CCOC(F)F)c4ccc(-c5c(-n6cc(C(F)(F)F)nn6)ccc(Cl)c5F)c[n+]4[O-])c3)cc2)no1 (stereo not drawn) [Example P903] | 0.0115 |
